± gives the expanded uncertainty stated by the source.
Settings: Liquid, Vibrating tube method

CCCCCCCN [1-heptanamine]
mass density [kg/m3]
Settings | 293.15 K | 303.15 K | 313.15 K | 323.15 K | 333.15 K | 343.15 K | 353.15 K
100 kPa | 774.9 ± 0.4 | 766.5 ± 0.4 | 758.2 ± 0.4 | 749.8 ± 0.4 | 741.4 ± 0.4 | 732.6 ± 0.5 | 724.4 ± 0.5
10000 kPa | 781.1 ± 0.5 | 773.6 ± 0.5 | 765.4 ± 0.5 | 757.6 ± 0.5 | 749.5 ± 0.5 | 741.7 ± 0.5 | 733.7 ± 0.6
20000 kPa | 787.1 ± 0.5 | 780 ± 0.6 | 772 ± 0.6 | 764.5 ± 0.6 | 756.8 ± 0.6 | 749.6 ± 0.6 | 741.9 ± 0.6
30000 kPa | 792.6 ± 0.6 | 785.8 ± 0.6 | 778.2 ± 0.7 | 771 ± 0.7 | 763.4 ± 0.7 | 756.7 ± 0.7 | 749.3 ± 0.7
40000 kPa | 797.8 ± 0.7 | 791.3 ± 0.7 | 784 ± 0.7 | 777 ± 0.8 | 769.6 ± 0.8 | 763.3 ± 0.8 | 756.2 ± 0.8
50000 kPa | 802.7 ± 0.8 | 796.5 ± 0.8 | 789.3 ± 0.8 | 782.6 ± 0.9 | 775.5 ± 0.9 | 769.4 ± 0.9 | 762.6 ± 0.9
60000 kPa | 807.4 ± 0.9 | 801.3 ± 0.9 | 794.5 ± 0.9 | 787.8 ± 0.9 | 780.9 ± 1 | 775.1 ± 1 | 768.7 ± 1
70000 kPa | 811.8 ± 0.9 | 806 ± 1 | 799.2 ± 1 | 792.7 ± 1 | 786.2 ± 1 | 780.4 ± 1.1 | 774.2 ± 1.1
80000 kPa | 816.1 ± 1 | 810.4 ± 1 | 803.7 ± 1.1 | 797.5 ± 1.1 | 791.1 ± 1.1 | 785.5 ± 1.2 | 779.5 ± 1.2
90000 kPa | 820.2 ± 1.1 | 814.6 ± 1.1 | 808 ± 1.2 | 802 ± 1.2 | 795.6 ± 1.2 | 790.3 ± 1.2 | 784.3 ± 1.3
100000 kPa | 824 ± 1.2 | 818.7 ± 1.2 | 812.2 ± 1.2 | 806.3 ± 1.3 | 800 ± 1.3 | 794.9 ± 1.3 | 789.2 ± 1.3
110000 kPa | 827.8 ± 1.2 | 822.5 ± 1.3 | 816.2 ± 1.3 | 810.6 ± 1.3 | 804.3 ± 1.4 | 799.2 ± 1.4 | 793.7 ± 1.4
120000 kPa | 831.5 ± 1.3 | 826.2 ± 1.3 | 820.1 ± 1.4 | 814.5 ± 1.4 | 808.4 ± 1.4 | 803.3 ± 1.5 | 797.9 ± 1.5
130000 kPa | 835 ± 1.3 | 829.9 ± 1.4 | 823.8 ± 1.4 | 818.4 ± 1.5 | 812.4 ± 1.5 | 807.4 ± 1.5 | 802.1 ± 1.6
140000 kPa | 838.3 ± 1.4 | 833.3 ± 1.4 | 827.4 ± 1.5 | 822.1 ± 1.5 | 816.2 ± 1.6 | 811.3 ± 1.6 | 806.1 ± 1.6

CCCCCCN [1-hexanamine]
mass density [kg/m3]
Settings | 293.15 K | 303.15 K | 313.15 K | 323.15 K | 333.15 K | 343.15 K | 353.15 K
100 kPa | 765.1 ± 0.3 | 756.2 ± 0.4 | 748.2 ± 0.4 | 738.9 ± 0.4 | 730.2 ± 0.4 | 721.3 ± 0.4 | 712.4 ± 0.5
10000 kPa | 771.5 ± 0.4 | 763.5 ± 0.4 | 755.4 ± 0.4 | 746.9 ± 0.5 | 738.7 ± 0.5 | 730.6 ± 0.5 | 722.3 ± 0.5
20000 kPa | 777.6 ± 0.5 | 770.2 ± 0.5 | 762.3 ± 0.5 | 754.2 ± 0.5 | 746.3 ± 0.5 | 738.8 ± 0.6 | 731.1 ± 0.6
30000 kPa | 783.4 ± 0.6 | 776.3 ± 0.6 | 768.6 ± 0.6 | 761 ± 0.6 | 753.4 ± 0.6 | 746.4 ± 0.6 | 739 ± 0.7
40000 kPa | 788.8 ± 0.6 | 781.9 ± 0.7 | 774.6 ± 0.7 | 767.2 ± 0.7 | 759.9 ± 0.7 | 753.2 ± 0.7 | 746 ± 0.8
50000 kPa | 793.8 ± 0.7 | 787.2 ± 0.7 | 780.2 ± 0.8 | 772.9 ± 0.8 | 765.9 ± 0.8 | 759.6 ± 0.8 | 752.5 ± 0.9
60000 kPa | 798.8 ± 0.8 | 792.2 ± 0.8 | 785.3 ± 0.8 | 778.4 ± 0.9 | 771.6 ± 0.9 | 765.6 ± 0.9 | 759 ± 0.9
70000 kPa | 803.3 ± 0.9 | 796.9 ± 0.9 | 790.3 ± 0.9 | 783.5 ± 1 | 776.9 ± 1 | 771 ± 1 | 764.6 ± 1
80000 kPa | 807.7 ± 1 | 801.5 ± 1 | 794.9 ± 1 | 788.4 ± 1 | 781.9 ± 1.1 | 776.2 ± 1.1 | 770 ± 1.1
90000 kPa | 811.9 ± 1 | 805.8 ± 1.1 | 799.4 ± 1.1 | 792.9 ± 1.1 | 786.7 ± 1.2 | 781.1 ± 1.2 | 775.1 ± 1.2
100000 kPa | 815.9 ± 1.1 | 810 ± 1.1 | 803.7 ± 1.2 | 797.3 ± 1.2 | 791.2 ± 1.2 | 785.9 ± 1.3 | 780 ± 1.3
110000 kPa | 819.8 ± 1.2 | 814 ± 1.2 | 807.8 ± 1.2 | 801.7 ± 1.3 | 795.7 ± 1.3 | 790.3 ± 1.3 | 784.6 ± 1.4
120000 kPa | 823.5 ± 1.2 | 817.9 ± 1.3 | 811.7 ± 1.3 | 805.8 ± 1.3 | 799.9 ± 1.4 | 794.6 ± 1.4 | 789.1 ± 1.5
130000 kPa | 827.1 ± 1.3 | 821.6 ± 1.3 | 815.5 ± 1.4 | 809.7 ± 1.4 | 803.8 ± 1.5 | 798.8 ± 1.5 | 793.2 ± 1.5
140000 kPa | 830.5 ± 1.4 | 825.1 ± 1.4 | 819.1 ± 1.4 | 813.5 ± 1.5 | 807.6 ± 1.5 | 802.7 ± 1.6 | 797.3 ± 1.6

CCCCCN [1-pentanamine]
mass density [kg/m3]
Settings | 293.15 K | 303.15 K | 313.15 K | 323.15 K | 333.15 K | 343.15 K | 353.15 K
100 kPa | 754.1 ± 0.4 | 744.7 ± 0.4 | 735.6 ± 0.4 | 726.4 ± 0.4 | 716.9 ± 0.4 | 707.5 ± 0.5 | 698 ± 0.5
10000 kPa | 760.9 ± 0.4 | 752.6 ± 0.5 | 743.8 ± 0.5 | 735.1 ± 0.5 | 726.1 ± 0.5 | 717.8 ± 0.5 | 708.7 ± 0.6
20000 kPa | 767.4 ± 0.5 | 759.6 ± 0.5 | 751.1 ± 0.5 | 742.8 ± 0.6 | 734.3 ± 0.6 | 726.5 ± 0.6 | 718 ± 0.6
30000 kPa | 773.4 ± 0.6 | 765.9 ± 0.6 | 757.9 ± 0.6 | 749.8 ± 0.6 | 741.7 ± 0.7 | 734.4 ± 0.7 | 726.3 ± 0.7
40000 kPa | 778.9 ± 0.7 | 772 ± 0.7 | 764.1 ± 0.7 | 756.3 ± 0.7 | 748.5 ± 0.8 | 741.6 ± 0.8 | 733.9 ± 0.8
50000 kPa | 784.2 ± 0.8 | 777.4 ± 0.8 | 769.8 ± 0.8 | 762.3 ± 0.8 | 754.8 ± 0.9 | 748.2 ± 0.9 | 740.8 ± 0.9
60000 kPa | 789.3 ± 0.8 | 782.7 ± 0.9 | 775.2 ± 0.9 | 768 ± 0.9 | 760.7 ± 0.9 | 754.3 ± 1 | 747.4 ± 1
70000 kPa | 794 ± 0.9 | 787.4 ± 1 | 780.3 ± 1 | 773.2 ± 1 | 766.3 ± 1 | 760 ± 1.1 | 753.3 ± 1.1
80000 kPa | 798.5 ± 1 | 792.1 ± 1 | 785.1 ± 1.1 | 778.2 ± 1.1 | 771.5 ± 1.1 | 765.4 ± 1.2 | 759.1 ± 1.2
90000 kPa | 802.8 ± 1.1 | 796.5 ± 1.1 | 789.7 ± 1.1 | 783 ± 1.2 | 776.5 ± 1.2 | 770.6 ± 1.2 | 764.2 ± 1.3
100000 kPa | 806.9 ± 1.2 | 800.8 ± 1.2 | 794.1 ± 1.2 | 787.6 ± 1.3 | 781.1 ± 1.3 | 775.4 ± 1.3 | 769.3 ± 1.4
110000 kPa | 810.8 ± 1.2 | 805 ± 1.3 | 798.4 ± 1.3 | 792.1 ± 1.3 | 785.6 ± 1.4 | 780.1 ± 1.4 | 774.1 ± 1.4
120000 kPa | 814.7 ± 1.3 | 808.8 ± 1.3 | 802.4 ± 1.4 | 796.2 ± 1.4 | 790 ± 1.5 | 784.4 ± 1.5 | 778.6 ± 1.5
130000 kPa | 818.4 ± 1.4 | 812.5 ± 1.4 | 806.4 ± 1.4 | 800.3 ± 1.5 | 794.2 ± 1.5 | 788.7 ± 1.6 | 782.9 ± 1.6
140000 kPa | 822 ± 1.4 | 816.1 ± 1.5 | 810.1 ± 1.5 | 804.2 ± 1.6 | 798 ± 1.6 | 792.8 ± 1.6 | 787.2 ± 1.7

From the NIST ThermoML archive (doi:10.1016/j.jct.2008.01.006)
